# In patent US20220363667A1 (Nippon Chemiphar Co., Ltd., priority 2018, published 2022):
# “Also recorded” adds a separate entry of the source.
# Target: T1, human Cav3.2 channels (Homo sapiens, UniProt O95180)
# T1 construct: expressed in transfected cells
# Assay: T-type calcium blocking action: intracellular calcium concentration in cells steadily expressing human Cav3.2 channels
# Type: cell-based
# Conditions: HEK293 cells steadily expressing human Cav3.2 channels; Fluo-4 AM fluorescence increase after KCl stimulus
# From the text: (1) Construction of Cells Steadily Expressing Human Cav3.2 Channels
# A sequence obtained by adding HindIII site and a kozak sequence (GCCACC) to the 5′-side of human Cav3.2 channel ORF (Open Reading Frame) gene and adding a KpnI site to the 3′-side of the gene, was incorporated into pcDNA3.1 (+) (Thermo Fisher Scientific, #V790-20), and the plasmid was introduced into HEK293 cells (ATCC No. CRL-1573) according to the protocol of FuGENE (registered trademark) HD Transfection Reagent (Promega, #E2311).
# (2) Method for Measuring Intracellular Calcium Concentration
# The cell strain steadily expressing human Cav3.2 channels as produced by the testing method (1) was seeded on a 96-well plate using DMEM including 10% FBS, and the cells were cultured for 48 hours under the conditions of 37° C. and 5% CO2. Subsequently, the medium was removed, and each of the wells were washed with buffer A and treated with 80 μL of a fluorescent dye solution including a mixed liquid of 22 μg of a fluorescent calcium indicator, Fluo-4 AM (Dojindo Molecular Technologies, Inc., #F311), 20 μL of dimethyl sulfoxide (DMSO), 1 μL of 10% Pluronic F-127 (Thermo Fisher Scientific, #P6866), and 4 mL of buffer A. After the cells were left to stand for 45 minutes at room temperature under light-shielded conditions, and then the cells were washed with buffer B. DMSO as a negative control and various test compound solutions each obtained by dissolving a test compound dissolved in DMSO, in buffer B so as to obtain a 10-fold concentration of the evaluation concentration, were introduced into respective wells. The final concentration of DMSO was adjusted to 0.1%. The cells were left to stand for another 15 minutes at room temperature under light-shielded conditions, and measurement was made using a microplate reader, EnVision (PerkinElmer Inc.) using the following method. First, the background fluorescence of each well was measured, subsequently an ionophore was introduced into each well, and the baseline fluorescence was measured. Subsequently, buffer B having 83.8 mM KCl added thereto was introduced, and an increase in fluorescence caused by calcium influx generated by the stimulus was measured for 10 seconds. The percentage inhibition was calculated from the maximum fluorescence increase value from the baseline, the logarithmic value of the test compound concentration and the inhibitory activity are plotted, and thereby the IC50 value was calculated. The measurement was carried out by observing the fluorescence at 510 nm that was emitted when the cells were irradiated with excitation light at 485 nm.
# Buffer A: 140 mM NaCl, 5 mM KCl, 1 mM MgCl2, 0.5 mM CaCl2, 10 mM Glucose, 10 mM HEPES, pH 7.3
# Buffer B: 137.9 mM Choline-Cl, 4.1 mM KCl, 1 mM MgCl2, 0.5 mM CaCl2, 10 mM Glucose, 10 mM HEPES, pH 7.3, equilibrium potential of potassium: −92 mV
# T1 sequence (O95180 whole entry): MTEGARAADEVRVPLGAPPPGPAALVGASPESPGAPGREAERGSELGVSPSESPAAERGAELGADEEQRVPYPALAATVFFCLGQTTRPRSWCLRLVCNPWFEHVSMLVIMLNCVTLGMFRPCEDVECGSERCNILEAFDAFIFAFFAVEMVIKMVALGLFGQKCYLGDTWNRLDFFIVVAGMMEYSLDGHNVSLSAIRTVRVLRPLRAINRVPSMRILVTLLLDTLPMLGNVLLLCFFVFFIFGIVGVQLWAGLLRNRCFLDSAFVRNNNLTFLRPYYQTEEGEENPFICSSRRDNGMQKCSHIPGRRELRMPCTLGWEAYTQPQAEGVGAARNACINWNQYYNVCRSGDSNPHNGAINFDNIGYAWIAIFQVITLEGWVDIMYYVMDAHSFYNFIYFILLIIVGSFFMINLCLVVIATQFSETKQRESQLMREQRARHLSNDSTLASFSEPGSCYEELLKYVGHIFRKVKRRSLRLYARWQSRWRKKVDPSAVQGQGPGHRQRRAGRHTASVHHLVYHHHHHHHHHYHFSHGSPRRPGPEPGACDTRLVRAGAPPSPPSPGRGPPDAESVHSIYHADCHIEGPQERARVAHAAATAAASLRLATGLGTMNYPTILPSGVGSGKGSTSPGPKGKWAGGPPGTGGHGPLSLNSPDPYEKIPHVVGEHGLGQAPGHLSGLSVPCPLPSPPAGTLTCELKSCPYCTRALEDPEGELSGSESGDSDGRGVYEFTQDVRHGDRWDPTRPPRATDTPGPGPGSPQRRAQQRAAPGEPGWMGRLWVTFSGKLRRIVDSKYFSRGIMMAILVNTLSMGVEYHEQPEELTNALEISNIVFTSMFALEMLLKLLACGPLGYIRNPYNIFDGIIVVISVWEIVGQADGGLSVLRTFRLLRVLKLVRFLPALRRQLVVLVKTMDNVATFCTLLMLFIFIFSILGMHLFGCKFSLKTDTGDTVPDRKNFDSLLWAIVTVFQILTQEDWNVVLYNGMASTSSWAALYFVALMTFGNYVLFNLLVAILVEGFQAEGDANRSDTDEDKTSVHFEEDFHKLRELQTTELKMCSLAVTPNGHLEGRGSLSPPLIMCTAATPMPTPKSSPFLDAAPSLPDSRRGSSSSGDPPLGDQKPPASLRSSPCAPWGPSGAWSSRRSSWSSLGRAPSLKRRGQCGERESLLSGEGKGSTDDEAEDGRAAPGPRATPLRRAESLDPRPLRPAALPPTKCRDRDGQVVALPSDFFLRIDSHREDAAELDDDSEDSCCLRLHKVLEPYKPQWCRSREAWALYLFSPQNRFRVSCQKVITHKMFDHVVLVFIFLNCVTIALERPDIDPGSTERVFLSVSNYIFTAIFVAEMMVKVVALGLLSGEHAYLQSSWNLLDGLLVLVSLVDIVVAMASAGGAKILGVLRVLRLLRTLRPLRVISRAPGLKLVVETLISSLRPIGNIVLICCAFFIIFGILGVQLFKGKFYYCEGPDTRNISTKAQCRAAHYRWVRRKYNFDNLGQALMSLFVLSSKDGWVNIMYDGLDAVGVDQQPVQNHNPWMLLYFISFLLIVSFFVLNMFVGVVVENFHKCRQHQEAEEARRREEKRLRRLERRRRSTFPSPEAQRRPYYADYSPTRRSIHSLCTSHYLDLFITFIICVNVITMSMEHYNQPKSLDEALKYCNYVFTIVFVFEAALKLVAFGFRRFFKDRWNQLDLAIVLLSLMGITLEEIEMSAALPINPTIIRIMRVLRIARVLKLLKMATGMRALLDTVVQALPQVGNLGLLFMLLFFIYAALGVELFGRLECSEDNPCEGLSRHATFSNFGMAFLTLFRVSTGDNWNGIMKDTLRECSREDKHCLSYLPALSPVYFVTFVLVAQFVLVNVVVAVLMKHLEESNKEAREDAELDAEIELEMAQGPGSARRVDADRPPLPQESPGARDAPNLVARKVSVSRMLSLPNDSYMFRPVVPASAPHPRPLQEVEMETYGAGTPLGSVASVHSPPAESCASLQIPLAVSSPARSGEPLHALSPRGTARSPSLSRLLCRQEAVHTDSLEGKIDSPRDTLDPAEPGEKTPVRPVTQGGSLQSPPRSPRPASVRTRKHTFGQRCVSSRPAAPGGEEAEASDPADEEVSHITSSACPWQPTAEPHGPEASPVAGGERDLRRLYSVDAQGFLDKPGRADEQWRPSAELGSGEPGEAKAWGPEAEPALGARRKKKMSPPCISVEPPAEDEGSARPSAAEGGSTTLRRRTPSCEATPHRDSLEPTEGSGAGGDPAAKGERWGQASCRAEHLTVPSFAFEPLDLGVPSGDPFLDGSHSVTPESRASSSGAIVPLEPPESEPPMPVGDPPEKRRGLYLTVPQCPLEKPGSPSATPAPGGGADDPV
row,SMILES,IC50 [nM]
1,"N#Cc1cccc(N2CC[C@@H](NC(=O)[C@H]3C[C@@H]3c3nc4ccccc4[nH]3)C2)c1 [Example 60, (1S,2S)-2-(1H-benzo[d]imidazol-2-yl)-N—((R)-1-(3-cyanophenyl)pyrrolidin-3-yl)cyclopropane-1-carboxyamide]",470
2,"O=C(Cc1ccc(C2CC2)cc1)N[C@@H]1CCN(c2cc(C(F)(F)F)c3nccn3c2)C1 [Example 20, (R)-2-(4-cyclopropylphenyl)-N-(1-(8-(trifluoromethyl)imidazo[1,2-a]pyridin-6-yl)pyrrolidin-3-yl)acetamide]",> 10000
3,"O=C(Cc1ccc(C2CC2)cc1)N[C@@H]1CCCN(c2ccc(C(F)(F)F)nc2)C1 [Example 130, (R)-2-(4-cyclopropylphenyl)-N-(1-(6-(trifluoromethyl)pyridin-3-yl)piperidin-3-yl)acetamide]",> 10000
4,"O=C(N[C@@H]1CCCN(c2cncc(C(F)(F)F)c2)C1)[C@H]1C[C@@H]1c1nc2ccccc2[nH]1 [Example 186, (1S,23)-2-(1H-benzo[d]imidazol-2-yl)-N—((R)-1-(5-(trifluoromethyl)pyridin-3-yl)piperidin-3-yl)cyclopropane-1-carboxyamide]",190
5,"O=C(N[C@@H]1CCN(c2ccc(F)c(C(F)(F)F)c2)C1)[C@H]1C[C@@H]1c1nc2ccccc2[nH]1 [Example 57, (1S,2S)-2-(1H-benzo[d]imidazol-2-yl)-N—((R)-1-(4-fluoro-3-(trifluoromethyl)phenyl)pyrrolidin-3-yl)cyclopropane-1-carboxyamide]",20
6,O=C(N[C@@H]1CCN(c2cncc(C(F)(F)F)c2)C1)[C@H]1C[C@@H]1c1nc2cc(F)c(F)cc2o1 [Example 45],11
7,"O=C(N[C@@H]1CCN(c2ccc(F)c(C(F)(F)F)c2)C1)[C@H]1C[C@@H]1c1ncc2ccccc2n1 [Example 58, (1S,2S)—N—((R)-1-(4-fluoro-3-(trifluoromethyl)phenyl)pyrrolidin-3-yl)-2-(quinazolin-2-yl)cyclopropane-1-carboxyamide]",4400
8,"N#Cc1ccc2[nH]c(C3CC3C(=O)N[C@@H]3CCN(c4ccc(C(F)(F)F)nc4)C3)nc2c1 (single isomer, unassigned) [Example 61B]",2200
9,"COc1ncc(C(F)(F)F)cc1N1CC[C@@H](NC(=O)Cc2ccc(C3CC3)cc2)C1 [Example 128, (R)-2-(4-cyclopropylphenyl)-N-(1-(2-methoxy-5-(trifluoromethyl)pyridin-3-yl)pyrrolidin-3-yl)acetamide]",> 10000
10,"O=C(Cc1ccc(C2CC2)cc1)N[C@@H]1CCN(c2ccc(OCC(F)(F)F)nc2)C1 [Example 125, (R)-2-(4-cyclopropylphenyl)-N-(1-(6-(2,2,2-trifluoroethoxy)pyridin-3-yl)pyrrolidin-3-yl)acetamide]",> 10000
11,"CS(=O)(=O)c1cccc(N2CC[C@@H](NC(=O)[C@H]3C[C@@H]3c3nc4ccccc4[nH]3)C2)c1 [Example 59, (1S,2S)-2-(1H-benzo[d]imidazol-2-yl)-N—((R)-1-(3-(methylsulfonyl)phenyl)pyrrolidin-3-yl)cyclopropane-1-carboxyamide]",1800
12,"O=C(N[C@@H]1CCN(c2ncc(C(F)(F)F)cn2)C1)[C@H]1C[C@@H]1c1nc2ccccc2[nH]1 [Example 56, (1S,2S)-2-(1H-benzo[d]imidazol-2-yl)-N—((R)-1-(5-(trifluoromethyl)pyrimidin-2-yl)pyrrolidin-3-yl)cyclopropane-1-carboxyamide]",290
13,"N#Cc1ccc2[nH]c(C3CC3C(=O)N[C@@H]3CCN(c4ccc(C(F)(F)F)nc4)C3)nc2c1 (single isomer, unassigned) [Example 61A]",1100
14,"O=C(N[C@H]1CCN(c2ccc(C(F)(F)F)nc2)C1)[C@H]1C[C@@H]1c1nc2ccccc2[nH]1 [Example 55, (1S,25)-2-(1H-benzo[d]imidazol-2-yl)-N—((S)-1-(6-(trifluoromethyl)pyridin-3-yl)pyrrolidin-3-yl)cyclopropane-1-carboxyamide]",470
15,"NC(C(=O)N[C@@H]1CCN(c2cncc(C(F)(F)F)c2)C1)c1ccc(C2CC2)cc1 (stereo partly drawn) [Example 137B, 2-amino-2-(4-cyclopropylphenyl)-N((R)-1-(5-(trifluoromethyl)pyridin-3-yl)pyrrolidin-3-yl)acetamide]",820
16,"O=C(N[C@@H]1CCN(c2ccc(C(F)(F)F)nn2)C1)[C@H]1C[C@@H]1c1nc2ccccc2[nH]1 [Example 69, (1S,2S)-2-(1H-benzo[d]imidazol-2-yl)-N—((R)-1-(6-(trifluoromethyl)pyridazin-3-yl)pyrrolidin-3-yl)cyclopropane-1-carboxyamide]",1200
17,"O=C(N[C@@H]1CCN(c2ccnc(C(F)(F)F)c2)C1)[C@H]1C[C@@H]1c1nc2ccccc2[nH]1 [Example 62, (1S,2S)-2-(1H-benzo[d]imidazol-2-yl)-N—((R)-1-(2-(trifluoromethyl)pyridin-4-yl)pyrrolidin-3-yl)cyclopropane-1-carboxyamide]",410
18,"O=C(Cc1ccc(C2CC2)cc1)NC1CN(c2ccc(C(F)(F)F)cc2)C1 [Example 169, 2-(4-Cyclopropylphenyl)-N-(1-(4-(trifluoromethyl)phenyl)azetidin-3-yl)acetamide]",> 10000
19,"COc1ncc(N2CC[C@@H](NC(=O)[C@H]3C[C@@H]3c3nc4ccccc4[nH]3)C2)cc1C(F)(F)F [Example 67, (1S,2S)-2-(1H-benzo[d]imidazol-2-yl)-N—((R)-1-(6-methoxy-5-(trifluoromethyl)pyridin-3-yl)pyrrolidin-3-yl) cyclopropane-1-carboxyamide]",29

# Tested on: SD rats
# Assay: Rat formalin test
# Type: in vivo
# Conditions: po, 30 mg/kg orally once, pain behavior time from 15 to 30 minutes after formalin administration vs vehicle group, read-out: Inhibition ratio (pain behavior inhibition ratio)
# Procedure: 30 mg/kg of a vehicle or a test substance was orally administrated to SD rats once, and according to the method described in McNamara C. R., Mandel-Brehm J., Bautista D. M., Siemens J., Deranian K. L., Zhao M., Hayward N. J., Chong J. A., Julius D., Moran M. M., Fanger C. M.: TRPA1 mediates formalin-induced pain. Proc. Natl. Acad. Sci. U.S.A. 104, 2007, 13525-13530, 50 μL of a 2.0% formalin solution as a pain-inducing substance was subcutaneously administered under the skin of the plantar plate of the right hind limb of each rat.
# Regarding the evaluation, the pain behavior inhibition ratio was determined from the pain behavior time of each test substance-administered group with respect to the pain behavior time of the vehicle-administered group for 15 minutes measured from 15 minutes to 30 minutes after the administration.
row,SMILES,inhibition in vivo at 30 mg/kg [%]
1,"O=C(N[C@@H]1CCN(c2ccc(F)c(C(F)(F)F)c2)C1)[C@H]1C[C@@H]1c1nc2ccccc2[nH]1 [Example 57, (1S,2S)-2-(1H-benzo[d]imidazol-2-yl)-N—((R)-1-(4-fluoro-3-(trifluoromethyl)phenyl)pyrrolidin-3-yl)cyclopropane-1-carboxyamide]",< 10
2,"Cn1ncc2cc(CC(=O)N[C@@H]3CCN(c4ccc(C(F)(F)F)nc4)C3)ccc21 [Example 144, (R)-2-(1-methyl-1H-indazol-5-yl)-N-(1-(6-(trifluoromethyl)pyridin-3-yl)pyrrolidin-3-yl)acetamide]",≥ 20

# Tested on: mouse PSNL model
# Assay: Mechanical allodynia in mouse partial sciatic nerve ligation (PSNL) model
# Type: in vivo
# Conditions: 30 mg/kg orally administered, compared with the vehicle group
# From the text: The production of a mouse PSNL model was achieved according to the method of Seltzer et al. A mouse was subjected to inhalation anesthesia with isoflurane. The femoral region of the mouse was shaved and disinfected with isodine. The skin on a thighbone of the mouse was incised, the fascia directly under the skin was cut, and the muscle heads of the musculus biceps femoris were split. The sciatic nerve directly under the fascia was checked, and then the sciatic nerve was detached so as not to damage the nerve. The needle of a needle with 8-0 silk thread was passed through the sciatic nerve to penetrate therethrough, and the sciatic nerve was ligated for about ½ to ⅓ of the whole nerve. The skin was sutured, and the mouse was raised for about 7 days. […]
# The measurement of the pain threshold was carried out after transferring the mice into a cage for measurement and waiting for the exploratory behavior to disappear. Regarding the pain threshold (paw withdrawal filament ((g)), the plantar plates of the mice were stimulated with von Frey filaments (Sttoelting Co.: TOUCH-TEST SENSORY EVLUATOR) having different stimulus intensities, and the presence or absence of an escape response was observed. The 50% threshold was calculated by an up-down method with reference to the method of Chaplan et al. (Quantitative assessment of tactile allodynia in the rat paw. J neurosci Methods, 53, 1994, 55-63). […]
row,SMILES,"mechanical allodynia (pain threshold, von Frey filament test)"
1,"Cn1ncc2cc(CC(=O)N[C@@H]3CCN(c4ccc(C(F)(F)F)nc4)C3)ccc21 [Example 144, (R)-2-(1-methyl-1H-indazol-5-yl)-N-(1-(6-(trifluoromethyl)pyridin-3-yl)pyrrolidin-3-yl)acetamide]",inhibited mechanical allodynia statistically significantly; also recorded: suppressed statistically significantly
